Literature values as cited in PubChem BioAssay AID1259409 (Chemical Carcinogenesis Research Information System (CCRIS), 2018).

Test system: rodent chemically induced tumor inhibition, incidence and multiplicity
Test: CCRIS tumor inhibitor studies
Conditions: Dose [Inhibitor]: 0, Promoter: NONE USED

For `S=C=NCCc1ccccc1`, the “tumour outcome (control, treated, inhibition, significance)” value (Carcinogen: BENZO[A]PYRENE, 50-32-8, 12 MG/KG/D FOR 6 CONSECUTIVE DAYS (STUDY DURATION: 7 MO), Route [Inhibitor]: GAVAGE, Species: MOUSE, Strain/Sex: STRAIN-A/FEMALE, Target Tissue: Type of Lesion: LUNG: TUMOR, Dose [Carcinogen]: 100 MG/KG ONCE AFTER FOURTH INHIBITOR DOSE) is listed as 100%, 100%, 0%, not significant, the “tumour outcome (control, treated, inhibition, significance)” value (Carcinogen: BENZO[A]PYRENE, 50-32-8, 12 MG/KG/D FOR 6 CONSECUTIVE DAYS (STUDY DURATION: 7 MO), Route [Inhibitor]: GAVAGE, Species: MOUSE, Strain/Sex: STRAIN-A/MALE, Target Tissue: Type of Lesion: LUNG: TUMOR, Dose [Carcinogen]: 100 MG/KG ONCE AFTER FOURTH INHIBITOR DOSE) is listed as 100%, 100%, 0%, not significant and the “tumour outcome (control, treated, inhibition, significance)” value (Carcinogen: BENZO[A]PYRENE, 50-32-8, 41 MG/KG/D FOR 6 CONSECUTIVE DAYS (STUDY DURATION: 7 MO), Route [Inhibitor]: GAVAGE, Species: MOUSE, Strain/Sex: STRAIN-A/FEMALE, Target Tissue: Type of Lesion: LUNG: TUMOR, Dose [Carcinogen]: 100 MG/KG ONCE AFTER FOURTH INHIBITOR DOSE) is listed as 100%, 100%, 0%, not significant. For the same compound, the “tumour outcome (control, treated, inhibition, significance)” value (Carcinogen: BENZO[A]PYRENE, 50-32-8, 41 MG/KG/D FOR 6 CONSECUTIVE DAYS (STUDY DURATION: 7 MO), Route [Inhibitor]: GAVAGE, Species: MOUSE, Strain/Sex: STRAIN-A/MALE, Target Tissue: Type of Lesion: LUNG: TUMOR, Dose [Carcinogen]: 100 MG/KG ONCE AFTER FOURTH INHIBITOR DOSE) was 100%, 95%, 5%, not calculated, the “tumour outcome (control, treated, inhibition, significance)” value (Carcinogen: BENZO[A]PYRENE, 50-32-8, 82 MG/KG/D FOR 6 CONSECUTIVE DAYS (STUDY DURATION: 7 MO), Route [Inhibitor]: GAVAGE, Species: MOUSE, Strain/Sex: STRAIN-A/FEMALE, Target Tissue: Type of Lesion: LUNG: TUMOR, Dose [Carcinogen]: 100 MG/KG ONCE AFTER FOURTH INHIBITOR DOSE) was 100%, 100%, 0%, not significant and the “tumour outcome (control, treated, inhibition, significance)” value (Carcinogen: BENZO[A]PYRENE, 50-32-8, 82 MG/KG/D FOR 6 CONSECUTIVE DAYS (STUDY DURATION: 7 MO), Route [Inhibitor]: GAVAGE, Species: MOUSE, Strain/Sex: STRAIN-A/MALE, Target Tissue: Type of Lesion: LUNG: TUMOR, Dose [Carcinogen]: 100 MG/KG ONCE AFTER FOURTH INHIBITION DOSE) was 100%, 100%, 0%, not significant. The “tumour outcome (control, treated, inhibition, significance)” value (Carcinogen: BENZO[A]PYRENE, 50-32-8, 122 MG/KG/D FOR 6 CONSECUTIVE DAYS (STUDY DURATION: 7 MO), Route [Inhibitor]: GAVAGE, Species: MOUSE, Strain/Sex: STRAIN-A/FEMALE, Target Tissue: Type of Lesion: LUNG: TUMOR, Dose [Carcinogen]: 100 MG/KG ONCE AFTER FOURTH INHIBITOR DOSE) was 100%, 90%, 10%, not significant, the “tumour outcome (control, treated, inhibition, significance)” value (Carcinogen: BENZO[A]PYRENE, 50-32-8, 122 MG/KG/D FOR 6 CONSECUTIVE DAYS (STUDY DURATION: 7 MO), Route [Inhibitor]: GAVAGE, Species: MOUSE, Strain/Sex: STRAIN-A/MALE, Target Tissue: Type of Lesion: LUNG: TUMOR, Dose [Carcinogen]: 100 MG/KG ONCE AFTER FOURTH INHIBITOR DOSE) was 100%, 95%, 5%, not significant and the “tumour outcome (control, treated, inhibition, significance)” value (Carcinogen: DIETHYLNITROSAMINE, 55-18-5, 82 MG/KG BW BY INTRAPERITONEAL INJECTION ON DAYS 13, 14 AND 15 OF AGE THEN 0.65 G/KG DIET FROM 21 TO 161 DAYS OF AGE, Route [Inhibitor]: INTRAPERITONEAL, ORAL, Species: MOUSE, Strain/Sex: C3H/MALE, Target Tissue: Type of Lesion: LIVER: ADENOMA, Dose [Carcinogen]: 4 MG/KG IN TRICAPRYLIN ONCE ON DAY 15 OF AGE) was 100%, 89%, 11%, not significant. The “tumour outcome (control, treated, inhibition, significance)” value (Carcinogen: DIETHYLNITROSAMINE, 55-18-5, N-METHYL-N-NITROSOUREA, 684-93-5, N-BUTYL-N-(4-HYDROXYBUTYL)NITROSAMINE, 3817-11-6, DIMETHY, Carcinogen: DIETHYLNITROSAMINE, 55-18-5, N-METHYL-N-NITROSOUREA, 684-93-5, N-BUTYL-N-(4-HYDROXYBUTYL)NITROSAMINE, 3817-11-6, DIMETHY, 0.1% IN THE DIET FOR 24 WK BEGINNING 1 DAY POST CARCINOGEN TREATMENT (STUDY DURATION: 28 WK), Route [Inhibitor]: ORAL, Species: RAT, Strain/Sex: F344/MALE, Target Tissue: Type of Lesion: LARGE INTESTINE: ADENOMA, Dose [Carcinogen]: 100 MG/KG BW DEN ONCE FOLLOWED BY 20 MG/KG BW MNU 4 TIMES AND 0.05% BBN IN DRINKING WATER DURING FIRST 2 WK THEN 40 MG/K) was 27%, 7%, 74%, not significant, the “tumour outcome (control, treated, inhibition, significance)” value (Carcinogen: DIETHYLNITROSAMINE, 55-18-5, N-METHYL-N-NITROSOUREA, 684-93-5, N-BUTYL-N-(4-HYDROXYBUTYL)NITROSAMINE, 3817-11-6, DIMETHY, Carcinogen: DIETHYLNITROSAMINE, 55-18-5, N-METHYL-N-NITROSOUREA, 684-93-5, N-BUTYL-N-(4-HYDROXYBUTYL)NITROSAMINE, 3817-11-6, DIMETHY, 0.1% IN THE DIET FOR 24 WK BEGINNING 1 DAY POST CARCINOGEN TREATMENT (STUDY DURATION: 28 WK), Route [Inhibitor]: ORAL, Species: RAT, Strain/Sex: F344/MALE, Target Tissue: Type of Lesion: LARGE INTESTINE: CARCINOMA, Dose [Carcinogen]: 100 MG/KG BW DEN ONCE FOLLOWED BY 20 MG/KG BW MNU 4 TIMES AND 0.05% BBN IN DRINKING WATER DURING FIRST 2 WK THEN 40 MG/K) was 7%, 0%, 100%, not significant and the “tumour outcome (control, treated, inhibition, significance)” value (Carcinogen: DIETHYLNITROSAMINE, 55-18-5, N-METHYL-N-NITROSOUREA, 684-93-5, N-BUTYL-N-(4-HYDROXYBUTYL)NITROSAMINE, 3817-11-6, DIMETHY, Carcinogen: DIETHYLNITROSAMINE, 55-18-5, N-METHYL-N-NITROSOUREA, 684-93-5, N-BUTYL-N-(4-HYDROXYBUTYL)NITROSAMINE, 3817-11-6, DIMETHY, 0.1% IN THE DIET FOR 24 WK BEGINNING 1 DAY POST CARCINOGEN TREATMENT (STUDY DURATION: 28 WK), Route [Inhibitor]: ORAL, Species: RAT, Strain/Sex: F344/MALE, Target Tissue: Type of Lesion: SMALL INTESTINE: ADENOMA, Dose [Carcinogen]: 100 MG/KG BW DEN ONCE FOLLOWED BY 20 MG/KG BW MNU 4 TIMES AND 0.05% BBN IN DRINKING WATER DURING FIRST 2 WK THEN 40 MG/K) was 33%, 50%, -52%, not significant. The “tumour outcome (control, treated, inhibition, significance)” value (Carcinogen: DIETHYLNITROSAMINE, 55-18-5, N-METHYL-N-NITROSOUREA, 684-93-5, N-BUTYL-N-(4-HYDROXYBUTYL)NITROSAMINE, 3817-11-6, DIMETHY, Carcinogen: DIETHYLNITROSAMINE, 55-18-5, N-METHYL-N-NITROSOUREA, 684-93-5, N-BUTYL-N-(4-HYDROXYBUTYL)NITROSAMINE, 3817-11-6, DIMETHY, 0.1% IN THE DIET FOR 24 WK BEGINNING 1 DAY POST CARCINOGEN TREATMENT (STUDY DURATION: 28 WK), Route [Inhibitor]: ORAL, Species: RAT, Strain/Sex: F344/MALE, Target Tissue: Type of Lesion: SMALL INTESTINE: CARCINOMA, Dose [Carcinogen]: 100 MG/KG BW DEN ONCE FOLLOWED BY 20 MG/KG BW MNU 4 TIMES AND 0.05% BBN IN DRINKING WATER DURING FIRST 2 WK THEN 40 MG/K) was 7%, 14%, -100%, not significant, the “tumour outcome (control, treated, inhibition, significance)” value (Carcinogen: DIETHYLNITROSAMINE, 55-18-5, N-METHYL-N-NITROSOUREA, 684-93-5, N-BUTYL-N-(4-HYDROXYBUTYL)NITROSAMINE, 3817-11-6, DIMETHY, Carcinogen: DIETHYLNITROSAMINE, 55-18-5, N-METHYL-N-NITROSOUREA, 684-93-5, N-BUTYL-N-(4-HYDROXYBUTYL)NITROSAMINE, 3817-11-6, DIMETHY, 0.1% IN THE DIET FOR 24 WK BEGINNING 1 DAY POST CARCINOGEN TREATMENT (STUDY DURATION: 28 WK), Route [Inhibitor]: ORAL, Species: RAT, Strain/Sex: F344/MALE, Target Tissue: Type of Lesion: THYROID: CARCINOMA, Dose [Carcinogen]: 100 MG/KG BW DEN ONCE FOLLOWED BY 20 MG/KG BW MNU 4 TIMES AND 0.05% BBN IN DRINKING WATER DURING FIRST 2 WK THEN 40 MG/K) was 7%, 8%, -14%, not significant and the “tumour outcome (control, treated, inhibition, significance)” value (Carcinogen: DIETHYLNITROSAMINE, 55-18-5, N-METHYL-N-NITROSOUREA, 684-93-5, N-BUTYL-N-(4-HYDROXYBUTYL)NITROSAMINE, 3817-11-6, DIMETHY, Carcinogen: DIETHYLNITROSAMINE, 55-18-5, N-METHYL-N-NITROSOUREA, 684-93-5, N-BUTYL-N-(4-HYDROXYBUTYL)NITROSAMINE, 3817-11-6, DIMETHY, 0.1% IN THE DIET FOR 24 WK BEGINNING 1 DAY POST CARCINOGEN TREATMENT (STUDY DURATION: 28 WK), Route [Inhibitor]: ORAL, Species: RAT, Strain/Sex: F344/MALE, Target Tissue: Type of Lesion: URINARY BLADDER: PAPILLOMA, Dose [Carcinogen]: 100 MG/KG BW DEN ONCE FOLLOWED BY 20 MG/KG BW MNU 4 TIMES AND 0.05% BBN IN DRINKING WATER DURING FIRST 2 WK THEN 40 MG/K) was 7%, 33%, -371%, not significant. The “tumour outcome (control, treated, inhibition, significance)” value (Carcinogen: DIETHYLNITROSAMINE, 55-18-5, N-METHYL-N-NITROSOUREA, 684-93-5, N-BUTYL-N-(4-HYDROXYBUTYL)NITROSAMINE, 3817-11-6, DIMETHY, Carcinogen: DIETHYLNITROSAMINE, 55-18-5, N-METHYL-N-NITROSOUREA, 684-93-5, N-BUTYL-N-(4-HYDROXYBUTYL)NITROSAMINE, 3817-11-6, DIMETHY, 0.1% IN THE DIET FOR 24 WK BEGINNING 1 WK P0ST CARCINOGEN TREATMENT (STUDY DURATION: 28 WK), Route [Inhibitor]: ORAL, Species: RAT, Strain/Sex: F344/MALE, Target Tissue: Type of Lesion: URINARY BLADDER: CARCINOMA, Dose [Carcinogen]: 100 MG/KG BW DEN ONCE FOLLOWED BY 20 MG/KG BW MNU 4 TIMES AND 0.05% BBN IN DRINKING WATER DURING FIRST 2 WK THEN 40 MG/K) was 7%, 33%, -371%, not significant.
